These results are taken from US20250186408A1, “TREATMENT OF PHARMACORESISTANT EPILEPSY” (Katholieke Universiteit Leuven, priority 2021, published 2025).

SMILES strings stand for the structures. Read-outs that look alike come from different tables or passages of the source.

One may read the EC50 as the concentration at which the effect is half-maximal. As usually defined, the IC50 is the point on the concentration scale where inhibition reaches its midpoint. A word on the half-life: it is the time needed for the level to fall by half in the phase considered. Lower therefore signals rapid decline. For orientation: microsomal CLint means a measure of how fast metabolising enzymes remove a compound, apart from limits set by blood flow.

The target in one data set is CHRM3 (Homo sapiens, UniProt P20309). The data set is described as follows: Calcium Flux CHRM3 Agonist. The conditions noted are these: for Emax: read-out: Max response. On the technique in general: Calcium flux is commonly read through the fluorescence of an indicator in the cells.
Chain of CHRM3 (P20309 whole entry): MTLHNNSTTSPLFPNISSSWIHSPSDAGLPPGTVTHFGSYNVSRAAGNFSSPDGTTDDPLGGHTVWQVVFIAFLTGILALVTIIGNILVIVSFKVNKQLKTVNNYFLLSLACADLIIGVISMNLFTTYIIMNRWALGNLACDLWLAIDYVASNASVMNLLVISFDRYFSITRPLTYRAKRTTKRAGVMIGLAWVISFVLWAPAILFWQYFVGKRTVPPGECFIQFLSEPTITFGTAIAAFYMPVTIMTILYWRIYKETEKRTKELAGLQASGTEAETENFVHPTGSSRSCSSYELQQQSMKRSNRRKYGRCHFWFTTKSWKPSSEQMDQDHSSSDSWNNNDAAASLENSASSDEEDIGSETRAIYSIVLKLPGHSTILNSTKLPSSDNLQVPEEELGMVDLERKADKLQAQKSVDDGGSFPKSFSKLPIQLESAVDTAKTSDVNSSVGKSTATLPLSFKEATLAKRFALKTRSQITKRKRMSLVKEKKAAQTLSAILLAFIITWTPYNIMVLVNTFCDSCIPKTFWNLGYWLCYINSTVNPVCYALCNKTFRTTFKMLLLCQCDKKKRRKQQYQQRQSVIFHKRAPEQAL
The target in the next data set is CAV1.2 (Homo sapiens, UniProt Q13936). The data set is described as follows: Ion Channel CAV1.2 Blocker. It counts as cell-based.
Chain of CAV1.2 (Q13936 whole entry): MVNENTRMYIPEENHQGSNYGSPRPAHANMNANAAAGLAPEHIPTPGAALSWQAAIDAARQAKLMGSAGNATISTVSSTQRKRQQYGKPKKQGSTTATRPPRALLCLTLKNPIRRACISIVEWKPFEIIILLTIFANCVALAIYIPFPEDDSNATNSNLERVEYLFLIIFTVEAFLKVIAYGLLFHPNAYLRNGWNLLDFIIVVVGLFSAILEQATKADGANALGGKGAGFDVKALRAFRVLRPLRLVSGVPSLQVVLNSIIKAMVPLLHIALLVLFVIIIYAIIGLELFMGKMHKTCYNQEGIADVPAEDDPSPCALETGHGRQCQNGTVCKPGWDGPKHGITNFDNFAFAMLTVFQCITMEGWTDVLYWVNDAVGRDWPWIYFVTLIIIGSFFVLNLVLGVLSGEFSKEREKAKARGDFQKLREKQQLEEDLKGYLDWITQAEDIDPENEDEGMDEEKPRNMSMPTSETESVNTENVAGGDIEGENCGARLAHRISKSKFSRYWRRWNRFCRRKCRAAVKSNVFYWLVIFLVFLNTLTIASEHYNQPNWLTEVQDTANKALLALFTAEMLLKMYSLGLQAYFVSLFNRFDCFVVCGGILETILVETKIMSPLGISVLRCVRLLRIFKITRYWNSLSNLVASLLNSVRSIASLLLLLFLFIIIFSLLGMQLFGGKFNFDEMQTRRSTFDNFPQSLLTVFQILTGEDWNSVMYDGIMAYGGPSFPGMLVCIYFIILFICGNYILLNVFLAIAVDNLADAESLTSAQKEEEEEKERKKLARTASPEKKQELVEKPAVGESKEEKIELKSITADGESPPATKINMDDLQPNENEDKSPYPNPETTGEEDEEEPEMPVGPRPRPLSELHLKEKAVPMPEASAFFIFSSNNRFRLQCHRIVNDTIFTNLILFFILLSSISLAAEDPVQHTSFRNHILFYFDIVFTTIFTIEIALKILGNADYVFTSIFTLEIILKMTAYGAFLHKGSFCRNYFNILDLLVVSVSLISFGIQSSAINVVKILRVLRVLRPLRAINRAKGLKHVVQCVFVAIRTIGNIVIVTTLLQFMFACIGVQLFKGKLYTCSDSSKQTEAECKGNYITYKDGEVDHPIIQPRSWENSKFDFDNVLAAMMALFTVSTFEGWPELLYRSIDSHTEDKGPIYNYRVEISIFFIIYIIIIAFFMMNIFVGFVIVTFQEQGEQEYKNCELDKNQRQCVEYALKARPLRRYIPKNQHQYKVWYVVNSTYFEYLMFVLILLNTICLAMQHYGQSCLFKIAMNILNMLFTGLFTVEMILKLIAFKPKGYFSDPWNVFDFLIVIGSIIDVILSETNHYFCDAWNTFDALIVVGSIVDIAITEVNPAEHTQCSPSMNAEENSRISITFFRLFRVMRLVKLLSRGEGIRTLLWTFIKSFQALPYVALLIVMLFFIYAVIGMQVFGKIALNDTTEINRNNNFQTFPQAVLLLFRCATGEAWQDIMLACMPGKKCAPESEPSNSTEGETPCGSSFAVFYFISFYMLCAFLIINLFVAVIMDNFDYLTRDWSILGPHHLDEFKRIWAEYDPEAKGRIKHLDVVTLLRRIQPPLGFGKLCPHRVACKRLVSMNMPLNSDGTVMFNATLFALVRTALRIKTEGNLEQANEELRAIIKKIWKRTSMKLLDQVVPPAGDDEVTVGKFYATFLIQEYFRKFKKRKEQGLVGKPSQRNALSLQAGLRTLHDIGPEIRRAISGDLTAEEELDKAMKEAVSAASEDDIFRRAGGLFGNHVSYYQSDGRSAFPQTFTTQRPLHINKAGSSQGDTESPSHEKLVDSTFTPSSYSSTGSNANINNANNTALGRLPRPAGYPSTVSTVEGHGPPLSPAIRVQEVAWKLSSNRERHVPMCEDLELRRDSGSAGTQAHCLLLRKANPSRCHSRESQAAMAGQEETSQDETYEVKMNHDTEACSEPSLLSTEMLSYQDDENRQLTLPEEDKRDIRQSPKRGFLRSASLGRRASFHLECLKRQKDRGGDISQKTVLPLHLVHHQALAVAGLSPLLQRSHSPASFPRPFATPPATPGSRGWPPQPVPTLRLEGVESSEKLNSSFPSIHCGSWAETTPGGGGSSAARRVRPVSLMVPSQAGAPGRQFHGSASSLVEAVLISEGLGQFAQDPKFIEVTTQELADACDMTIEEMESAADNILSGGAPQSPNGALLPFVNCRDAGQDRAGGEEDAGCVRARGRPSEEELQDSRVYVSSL
Chain of CAV1.2 (Q08289 whole entry partner): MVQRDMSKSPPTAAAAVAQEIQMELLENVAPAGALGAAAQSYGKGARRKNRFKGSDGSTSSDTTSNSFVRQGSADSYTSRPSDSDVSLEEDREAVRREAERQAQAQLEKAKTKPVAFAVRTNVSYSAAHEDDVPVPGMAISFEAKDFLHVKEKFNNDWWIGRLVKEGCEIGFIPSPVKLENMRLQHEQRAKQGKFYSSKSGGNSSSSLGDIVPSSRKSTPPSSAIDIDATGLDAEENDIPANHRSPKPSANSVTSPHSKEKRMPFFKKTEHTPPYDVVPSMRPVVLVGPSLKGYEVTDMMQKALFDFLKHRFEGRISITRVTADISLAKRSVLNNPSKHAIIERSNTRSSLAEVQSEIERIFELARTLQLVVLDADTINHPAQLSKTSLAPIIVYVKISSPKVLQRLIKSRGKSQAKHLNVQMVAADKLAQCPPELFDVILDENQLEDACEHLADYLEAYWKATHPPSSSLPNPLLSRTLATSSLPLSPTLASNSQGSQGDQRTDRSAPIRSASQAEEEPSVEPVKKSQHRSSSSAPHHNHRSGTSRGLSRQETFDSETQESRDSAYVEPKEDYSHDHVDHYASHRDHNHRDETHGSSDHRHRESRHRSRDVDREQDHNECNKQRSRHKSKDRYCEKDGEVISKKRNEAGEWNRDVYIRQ
Chain of CAV1.2 (P54289 25-956 partner limits assumed): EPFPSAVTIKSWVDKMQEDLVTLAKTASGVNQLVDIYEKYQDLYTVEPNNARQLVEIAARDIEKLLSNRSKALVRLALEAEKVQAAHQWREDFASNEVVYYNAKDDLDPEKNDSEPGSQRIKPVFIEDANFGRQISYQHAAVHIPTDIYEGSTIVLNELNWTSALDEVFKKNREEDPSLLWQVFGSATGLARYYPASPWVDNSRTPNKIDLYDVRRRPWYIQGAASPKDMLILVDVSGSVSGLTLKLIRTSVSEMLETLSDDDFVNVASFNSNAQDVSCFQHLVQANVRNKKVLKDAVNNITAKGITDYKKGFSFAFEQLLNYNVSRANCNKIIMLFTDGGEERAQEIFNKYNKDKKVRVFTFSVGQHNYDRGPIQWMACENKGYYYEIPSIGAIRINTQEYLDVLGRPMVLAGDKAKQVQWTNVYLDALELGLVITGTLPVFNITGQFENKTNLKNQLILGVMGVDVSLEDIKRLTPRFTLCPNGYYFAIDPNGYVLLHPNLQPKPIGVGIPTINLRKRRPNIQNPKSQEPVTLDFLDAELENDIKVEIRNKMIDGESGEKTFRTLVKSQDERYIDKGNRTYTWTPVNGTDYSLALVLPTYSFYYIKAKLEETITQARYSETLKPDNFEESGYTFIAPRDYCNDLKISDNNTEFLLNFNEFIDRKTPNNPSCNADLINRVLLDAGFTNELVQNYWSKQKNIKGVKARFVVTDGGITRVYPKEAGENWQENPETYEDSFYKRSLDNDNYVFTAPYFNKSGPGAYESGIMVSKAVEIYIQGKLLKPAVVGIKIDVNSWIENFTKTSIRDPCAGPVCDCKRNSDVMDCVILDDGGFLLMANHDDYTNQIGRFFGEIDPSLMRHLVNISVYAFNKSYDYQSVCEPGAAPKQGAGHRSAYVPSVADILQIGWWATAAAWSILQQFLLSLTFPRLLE
Chain of CAV1.2 (P54289 957-1103 partner limits assumed): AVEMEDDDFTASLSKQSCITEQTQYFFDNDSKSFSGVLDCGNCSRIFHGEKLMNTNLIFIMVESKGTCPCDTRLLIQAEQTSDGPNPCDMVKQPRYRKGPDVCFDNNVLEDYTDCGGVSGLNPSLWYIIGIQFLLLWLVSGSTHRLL
In the next data set the target is nAChR (a4/b2) (Homo sapiens, UniProt P17787+P43681). Put plainly: Ion Channel nAChR (a4/b2) Opener. Format: cell-based. The following applies: for Emax: Ion Channel nAChR (a4/b2) Opener, read-out: Max response.
The next data set concerns the target T1, CHRM2 (Homo sapiens, UniProt P08172).
T1 sequence (P08172 1-466): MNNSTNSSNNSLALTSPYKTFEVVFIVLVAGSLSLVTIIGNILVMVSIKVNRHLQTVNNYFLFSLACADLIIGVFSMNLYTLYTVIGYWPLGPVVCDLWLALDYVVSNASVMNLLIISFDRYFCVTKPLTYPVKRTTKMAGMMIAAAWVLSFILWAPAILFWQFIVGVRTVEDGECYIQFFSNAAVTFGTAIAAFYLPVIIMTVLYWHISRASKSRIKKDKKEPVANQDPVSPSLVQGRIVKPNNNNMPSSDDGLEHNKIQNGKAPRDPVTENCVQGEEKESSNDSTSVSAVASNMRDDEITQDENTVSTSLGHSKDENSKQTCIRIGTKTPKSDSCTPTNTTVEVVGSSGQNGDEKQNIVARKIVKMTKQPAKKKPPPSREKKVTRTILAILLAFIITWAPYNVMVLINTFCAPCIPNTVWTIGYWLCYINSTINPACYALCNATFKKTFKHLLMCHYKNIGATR
Put plainly: cAMP CHRM2 Antagonist. The following applies: for Emax: read-out: Max response.

For a further data set, the target named is DRD1 (Homo sapiens, UniProt P21728). The data set is described as follows: cAMP DRD1 Agonist. The conditions noted are these: for Emax: read-out: Max response.
Chain of DRD1 (P21728 whole entry): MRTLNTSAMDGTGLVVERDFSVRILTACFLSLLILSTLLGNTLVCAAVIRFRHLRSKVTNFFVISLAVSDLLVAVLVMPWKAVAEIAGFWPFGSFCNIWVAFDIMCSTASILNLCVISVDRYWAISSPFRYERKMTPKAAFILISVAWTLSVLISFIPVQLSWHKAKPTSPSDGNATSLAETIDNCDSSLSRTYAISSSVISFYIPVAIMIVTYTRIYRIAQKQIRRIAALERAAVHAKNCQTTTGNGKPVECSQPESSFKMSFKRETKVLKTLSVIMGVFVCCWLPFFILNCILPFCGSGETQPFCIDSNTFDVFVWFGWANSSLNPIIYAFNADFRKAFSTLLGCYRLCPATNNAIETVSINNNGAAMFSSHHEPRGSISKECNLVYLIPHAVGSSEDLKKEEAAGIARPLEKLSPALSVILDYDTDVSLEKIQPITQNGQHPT
For another data set, the target named is HTR2B (Homo sapiens, UniProt P41595). Put plainly: Calcium Flux HTR2B Agonist. The following applies: for Emax: read-out: Max response.
Data set [1] in a line: Intrinsic clearance (liver microsomes). The following applies: pooled liver microsomes, pH 7.4, human liver microsomes. It counts as in vitro ADME. An excerpt:
In vitro ADME profiling of compounds was done by Eurofins Panlabs Inc (St Charles, MO, USA) using their ADME-Tox service (Cat Ref P375, Tier 1 ADME Panel). […] (28). The atom-based log P calculation method, called OsirisP, uses as an increment system and adds contributions of every atom based on its atom type. The prediction engine distinguishes a total of 368 atom types and was optimized using a training set of more than 5000 molecules with experimentally determined log P values. The free prediction engine has proven to outperform many alternative calculation methods (29).
Metabolic stability of the test compounds was evaluated in pooled liver microsomes from human species. Test compounds were pre-incubated with liver microsomes in phosphate buffer (pH 7.4) in a 37° C. shaking water bath for 5 min and an NADPH-generating system was added to initiate the reaction. Samples were collected at time points of 0, 15, 30, 45 and 60 min and extracted with acetonitrile/methanol. After centrifugation, the supernatants were analysed by HPLC-MS/MS. T1/2 was calculated from the slope of the line obtained by plotting the natural logarithmic percentage (Ln %) of the test compound remaining in the reaction mixture vs. incubation time (min). CLint (μL/min/mg protein) was calculated from T1/2 using following equation: […]
For orientation: Liver microsomes are a subcellular fraction often used to study metabolism.

For another data set, the target named is T2, CCKAR (Homo sapiens, UniProt P32238).
T2 sequence (P32238 1-428): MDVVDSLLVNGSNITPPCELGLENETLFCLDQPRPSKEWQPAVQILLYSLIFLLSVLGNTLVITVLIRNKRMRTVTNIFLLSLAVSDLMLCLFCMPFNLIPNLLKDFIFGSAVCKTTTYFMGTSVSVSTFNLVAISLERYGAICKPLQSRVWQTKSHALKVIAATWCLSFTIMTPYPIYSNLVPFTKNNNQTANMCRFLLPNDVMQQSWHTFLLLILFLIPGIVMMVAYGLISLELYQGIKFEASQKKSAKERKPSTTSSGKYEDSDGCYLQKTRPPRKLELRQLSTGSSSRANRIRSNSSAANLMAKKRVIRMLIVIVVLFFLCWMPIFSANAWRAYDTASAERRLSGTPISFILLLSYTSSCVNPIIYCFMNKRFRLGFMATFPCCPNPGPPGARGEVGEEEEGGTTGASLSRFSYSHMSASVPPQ
The data set is described as follows: Calcium Flux CCKAR Antagonist. Format: cell-based. The following applies: for IC50: read-out: RC50, result type IC50; for Emax: read-out: Max response. As to the method:
(≤0.2% DMSO concentration). Assays were performed in 1× dye loading buffer consisting of 1× Dye (DiscoverX, Calcium No Wash^PLUS kit, Catalog No. 90-0091), 1× Additive A and 2.5 mM Probenecid in HBSS/20 mM HEPES. Probenecid was prepared fresh. Prior to testing, media was aspirated from cells and replaced with 25 μL dye loading buffer. Cells were incubated for 45 min at 37° C. and then 20 min at RT. For agonist determination, 25 μL of 2× compound in HBSS/20 mM HEPES was added using a FLIPR Tetra (MDS). […] 25 μL of 2× sample was added and cells were incubated for 30 min at RT in the dark to equilibrate plate temperature. After incubation, antagonist determination was initiated by addition of 25 μL of 1× compound with 3×EC80 agonist using FLIPR. For both agonist and antagonist formats, activity was measure on a FLIPR Tetra (MDS). Calcium mobilization was monitored for 2 min with a 5 sec baseline read.
FLIPR read—Area under the curve, was calculated for the entire 2 min read.

Another data set addresses T3, CHRM1 (Homo sapiens, UniProt P11229).
T3 sequence (P11229 1-460): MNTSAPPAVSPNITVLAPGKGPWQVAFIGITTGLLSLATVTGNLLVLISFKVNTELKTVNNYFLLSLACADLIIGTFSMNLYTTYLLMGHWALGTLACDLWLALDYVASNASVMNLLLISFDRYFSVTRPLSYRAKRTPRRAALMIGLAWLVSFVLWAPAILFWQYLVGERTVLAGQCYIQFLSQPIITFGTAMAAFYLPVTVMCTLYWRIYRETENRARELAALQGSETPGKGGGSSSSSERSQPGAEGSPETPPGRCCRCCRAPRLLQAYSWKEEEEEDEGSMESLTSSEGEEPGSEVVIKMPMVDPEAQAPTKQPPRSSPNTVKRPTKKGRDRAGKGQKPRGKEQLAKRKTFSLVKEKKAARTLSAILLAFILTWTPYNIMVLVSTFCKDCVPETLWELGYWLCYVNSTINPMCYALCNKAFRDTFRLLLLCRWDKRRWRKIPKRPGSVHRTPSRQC
Put plainly: Calcium Flux CHRM1 Agonist. The following applies: for Emax: read-out: Max response.

Method for CHRM1: (§1) In vitro pharmacological profiling of compounds was done against 78 functional assays for 47 common off-targets (30) by Eurofins DiscoverX Corporation (Fremont, CA, USA) using their SAFETYscan E/IC50 ELECT service (Cat Ref 87-1003DR, Safety47 Panel Dose Response). […] Compounds were tested in a range of 10 concentrations, following a 3-fold serial dilution, starting from 10 μM. The assays were performed utilizing the PathHunter enzyme fragment complementation (EFC) technology, FLIPR®-based cellular screening assays, and KINOMEscan kinase binding assays.
(§2) Prior to testing, cells (10,000 cells/well) were expanded from freezer stocks and seeded into a total volume of 50 μL into black walled, clear-bottom, Poly-D-lysine coated 384-well microplates and incubated at 37° C. […] Assays were performed in 1× dye loading buffer consisting of 1× Dye (DiscoverX, Calcium No Wash^PLUS kit, Catalog No. 90-0091), 1× Additive A and 2.5 mM Probenecid in HBSS/20 mM HEPES. Probenecid was prepared fresh. Prior to testing, media was aspirated from cells and replaced with 25 μL dye loading buffer. Cells were incubated for 45 min at 37° C. and then 20 min at RT. For agonist determination, 25 μL of 2× compound in HBSS/20 mM HEPES was added using a FLIPR Tetra (MDS). For antagonist determination, cells were pre-incubated with sample followed by agonist challenge at the EC80 concentration. 25 μL of 2× sample was added and cells were incubated for 30 min at RT in the dark to equilibrate plate temperature. After incubation, antagonist determination was initiated by addition of 25 μL of 1× compound with 3×EC80 agonist using FLIPR. For both agonist and antagonist formats, activity was measure on a FLIPR Tetra (MDS). Calcium mobilization was monitored for 2 min with a 5 sec baseline read.
(§3) FLIPR read—Area under the curve, was calculated for the entire 2 min read. Compound activity was analysed using CBIS data analysis suite (ChemInnovation, CA).
Method for CHRM2: In vitro pharmacological profiling of compounds was done against 78 functional assays for 47 common off-targets (30) by Eurofins DiscoverX Corporation (Fremont, CA, USA) using their SAFETYscan E/IC50 ELECT service (Cat Ref 87-1003DR, Safety47 Panel Dose Response). […] Compounds were tested in a range of 10 concentrations, following a 3-fold serial dilution, starting from 10 μM.
cAMP Hunter cell lines were expanded from freezer stocks. Prior to testing, cells were seeded in a total volume of 20 μL into white walled 384-well microplates and incubated at 37° C. cAMP modulation was determined using the DiscoverX HitHunter cAMP XS+ assay. For Gs agonist determination, cells were incubated with sample to induce response. For Gi agonist determination, cells were incubated with sample in the presence of EC80 forskolin to induce response. For both conditions, media was aspirated from cells and replaced with 15 μL 2:1 HBSS/10 mM HEPES:cAMP XS+ Ab reagent. Intermediate dilution of sample stocks was performed to generate 4× sample in assay buffer (containing 4×EC80 forskolin in the case of antagonist determination). 5 μL of 4× sample was added to cells and incubated at 37° C. or room temperature (RT) for 30 or 60 min. Final assay vehicle concentration was 1%. For antagonist determination, cells were pre-incubated with sample followed by agonist challenge at the EC80 concentration. Media was aspirated from cells and replaced with 10 μL 1:1 HBSS/HEPES:cAMP XS+ Ab reagent. 5 μL of 4× compound was added to the cells and incubated at 37° C. or RT for 30 min. 5 μL of 4×EC80 agonist was added to the cells and incubated at 37° C. or RT for 30 or 60 min. For Gi coupled GPCRs, EC80 forskolin was included. […] Microplates were read following signal generation with a PerkinElmer Envision™ instrument for chemiluminescent signal detection. Compound activity was analyzed using CBIS data analysis suite (ChemInnovation, CA). For Gs agonist mode assays, percentage activity was calculated using the following equation:
Method for CHRM3: as §1, §2, §3
Method for DRD1: as §1
cAMP Hunter cell lines were expanded from freezer stocks. Prior to testing, cells were seeded in a total volume of 20 μL into white walled 384-well microplates and incubated at 37° C. cAMP modulation was determined using the DiscoverX HitHunter cAMP XS+ assay. For Gs agonist determination, cells were incubated with sample to induce response. For Gi agonist determination, cells were incubated with sample in the presence of EC80 forskolin to induce response. For both conditions, media was aspirated from cells and replaced with 15 μL 2:1 HBSS/10 mM HEPES:cAMP XS+ Ab reagent. Intermediate dilution of sample stocks was performed to generate 4× sample in assay buffer (containing 4×EC80 forskolin in the case of antagonist determination). 5 μL of 4× sample was added to cells and incubated at 37° C. or room temperature (RT) for 30 or 60 min. Final assay vehicle concentration was 1%. For antagonist determination, cells were pre-incubated with sample followed by agonist challenge at the EC80 concentration. Media was aspirated from cells and replaced with 10 μL 1:1 HBSS/HEPES:cAMP XS+ Ab reagent. 5 μL of 4× compound was added to the cells and incubated at 37° C. or RT for 30 min. 5 μL of 4×EC80 agonist was added to the cells and incubated at 37° C. or RT for 30 or 60 min. For Gi coupled GPCRs, EC80 forskolin was included. […] Microplates were read following signal generation with a PerkinElmer Envision™ instrument for chemiluminescent signal detection. Compound activity was analyzed using CBIS data analysis suite (ChemInnovation, CA).
Method for HTR2B: as §1, §2, §3

In the case of `CC(C)(C)c1ccc(C#CC(O)c2ccccc2)cc1` (racemic) [Compound 3.3, rac-3-(4-(tert-butyl)phenyl)-1-phenylprop-2-yn-1-ol], the EC50 at CHRM3, at nAChR (a4/b2), at DRD1, at HTR2B and at CHRM1 was above 10 µM each time. For the same molecule, the Emax came to 0% at CHRM3; 0% at nAChR (a4/b2); 90.1% at CHRM2; 1.2% on DRD1; 0% at HTR2B; 0% at CCKAR. In addition, the Emax on CHRM1 stood at 1.8%. For the same molecule, the half-inhibitory concentration (IC50) against CAV1.2 is above 10 µM; against CHRM2, 4.3 µM; on CCKAR (Calcium Flux CCKAR Antagonist), above 10 µM. Further, at CAV1.2 (Ion Channel CAV1.2 Blocker, read-out: Max response), the Emax at 30 min is 7.2%. In data set [1], this molecule had a half-life at 100 nM of 19 min. This molecule also yielded a microsomal CLint at 100 nM in data set [1] of 381 µL/min/mg.
Turning to `Clc1cccc(C#Cc2n[nH]c3ncccc23)c1` [Compound 10.1, 3-((3-chlorophenyl)ethynyl)-1H-pyrazolo[3,4-b]pyridine], the EC50 on CHRM3, on nAChR (a4/b2), at DRD1, at HTR2B and at CHRM1 was above 10 µM each time. In addition, the Emax is 2.2% on CHRM3; 0% on nAChR (a4/b2); 0% at CHRM2; 1.3% on DRD1; 0% on HTR2B; 0% at CCKAR (Calcium Flux CCKAR Antagonist). Besides, the Emax at CHRM1 came to 1.8%. Also, the Emax at 30 min on CAV1.2 came out at 0%. The IC50 against CAV1.2, against CHRM2 and at CCKAR (Calcium Flux CCKAR Antagonist) was above 10 µM in each case. Further, the half-life at 100 nM in [1] was found to be 10 min. This molecule returned a microsomal CLint at 100 nM in data set [1] of 748 µL/min/mg.
